Tested on: carrageenan-induced rat tail thrombosis
Experiment: Carrageenan-induced rat tail thrombosis (black tail rate and length)
Format: in vivo, SD rats
Details: for Black tail rates of rats (%): Aspirin group 7.72 mg/kg intragastric
Protocol: The carrageenan was weighed and prepared into a carrageenan solution (2%) with a concentration of […] using 0.9% NaCl; rats were weighed and injected with carrageenan subcutaneously at a dose of 80 mg/kg; intragastric administration treatment was performed on a prevention group 5 days in advance; after model making for 30 min, intragastric administration treatment was performed on the remaining four groups other than the prevention group according to relevant doses, and then the rats were placed in a constant temperature environment of (18±2)° C., and free diet and water drinking were provided.
A total of 42 SD rats were randomly selected for thrombus model making by using carrageenan. The physiological activities of the rats were observed. The normal saline was used as a blank control group, and an aspirin group was used as a positive control group. A polypeptide (the earthworm protein peptide containing four anticoagulant active polypeptides, namely Leu-Val-Thr-Leu-Gly-Asn-Glu, Leu-Leu-Ala-Pro-Pro, Leu-Leu-Pro-Ala-Pro and Thr-Val-Ala-Pro-Phe prepared in Embodiment 1) and relevant medicines were dissolved with normal saline, and the intragastric administration dose was operated according to Table 2 below. […] After injection of carrageenan in each experimental group and normal saline group, rats with different degrees of blood stasis and black tail appeared 3 to 14 hours after model making, and gradually expanded to the tail root. The measured data was processed by spss18.0 software. In order to compare the differences between different groups, one-way analysis of variance was used. […] If P was smaller than 0.05, it indicated there was significant difference. […] The test results are shown in Table 3 and Table 4 below and in FIGS. 9 to 23.

CC(=O)Oc1ccccc1C(=O)O [Aspirin, aspirin]
Black tail rates of rats (%) (24 h): 0% | Black tail rates of rats (%) (36 h): 16.7% | Black tail rates of rats (%) (48 h): 16.7% | Black tail rates of rats (%) (56 h): 16.7% | Black tail rates of rats (%) (72 h): 50% | Black tail rates of rats (%) (96 h): 67% | black tail inhibition ratio compared with the normal saline group (aspirin group (7.72 mg/kg), after 48 hours, FIG. 9): 75.8% | length of tail thrombogenesis (black tail length) (aspirin group (7.72 mg/kg), after 48 hours, normal saline 100.13 mm): 24.24 mm | number of rats with obvious black tail signs (aspirin group, after 72 hours, FIG. 11): three
